# Test results reported in patent publication US8742114B2, “Nucleic acid detections and methods of their use” (priority 2011, dated 2014).
# Assays:
# dsDNA, ssDNA, and RNA = experiment: Selectivity test on dsDNA, ssDNA, and RNA in TE buffer; conditions: 2 μM dye, 10 μg/mL nucleic acid, 1×TE buffer, ex 480 nm (36, 40) or 620 nm (49), FIG. 2
# Protocol: Compound 36, compound 40, and compound 49 were prepared in 2 μM concentration in 1×TE buffer, individually. Salmon sperm dsDNA, calf thymus ssDNA, and E. coli rRNA were prepared in 10 μg/mL concentration in 1×TE buffer, individually. Equal amount of each solution of dsDNA, ssDNA, and RNA was added to the solutions of compound 36, compound 40 and compound 49, individually. The emission spectrum associated with each of the solutions was scanned at excitation wavelength 480 nm for compound 36 and 40, and at excitation wavelength 620 nm for compound 49.
# [1] = tested on: live and fixed HeLa cells; experiment: Cellular nucleic acid staining; assay type: cell-based; conditions: 1 μM in PBS buffer, 10 min, fluorescence microscopy, FIG. 5
# Protocol: Compound 38, compound 42, and compound 61 were prepared in 1 mM stock solution in water, respectively. Each compound at 1 μM concentration in PBS buffer was incubated with live and fixed HeLa cells in 96-well plate for 10 min, respectively. The fluorescence imaging of cells was taken on a fluorescence microscopy with a 488 nm excitation laser and a 520±15 nm emission filter, as shown in FIG. 5.
# DNA or RNA = experiment: Binding selectivity on DNA or RNA (effect of R3); conditions: R3 methyl 4-benzoate versus R3 H
# nucleic acids = conditions: background; cited from earlier work
# [2] = background; cited from earlier work
smiles,measurement,setting,value
COCCOCCOCCOCCN1C(N(CCC[N+](C)(C)C)CCC[N+](C)(C)C)=C/C(=C/c2sc3ccccc3[n+]2C)c2ccccc21 [Compound 40],"selectivity among dsDNA, ssDNA and RNA (fluorescence emission spectra)","dsDNA, ssDNA, and RNA",good selectivity for DNA versus RNA
CC[N+](C)(CC)Cc1ccc(C2=C/C(=C/c3sc4ccccc4[n+]3C)c3ccccc3N2CCOCCOCCOCCOC)cc1 [Compound 42],live cell permeability,[1],live cell impermeant
CN(C)CCCN(CCCN(C)C)C1=C/C(=C\C=C\c2sc3ccc(S(=O)(=O)[O-])cc3[n+]2C)c2ccccc2N1C [Compound 53],binding selectivity on DNA or RNA,DNA or RNA,high selectivity for DNA over RNA
CN(C)CCCN(CCCN(C)C)C1=C/C(=C\c2sc3ccccc3[n+]2C)c2ccccc2N1CCCCCC(=O)NCCOCCO.[I-] [Compound 61],live cell permeability,[1],live cell impermeant
CCCN1C=C/C(=C\c2sc3ccccc3[n+]2C)c2ccccc21 [SYBR Safe],detection sensitivity on nucleic acids,nucleic acids,low sensitive than desired
CN1C(=Cc2cc[n+](C)c3ccccc23)Sc2ccccc21 [Thiazole Orange],detection sensitivity on nucleic acids,nucleic acids,low detection sensitivity
"CC[n+]1c(-c2ccccc2)c2cc(N)ccc2c2ccc(N)cc21 [ethidium bromide, Ethidium bromide]",mutagenicity,[2],mutagenic
